Read-outs that look alike come from different tables or passages of the source.
Tests used:
[1] = cited from earlier work
[2] = molecular target: T1, ANGIOTENSIN II AT1 receptor (Homo sapiens, UniProt P30556); conditions: cited from earlier work
T1 sequence (P30556 1-359): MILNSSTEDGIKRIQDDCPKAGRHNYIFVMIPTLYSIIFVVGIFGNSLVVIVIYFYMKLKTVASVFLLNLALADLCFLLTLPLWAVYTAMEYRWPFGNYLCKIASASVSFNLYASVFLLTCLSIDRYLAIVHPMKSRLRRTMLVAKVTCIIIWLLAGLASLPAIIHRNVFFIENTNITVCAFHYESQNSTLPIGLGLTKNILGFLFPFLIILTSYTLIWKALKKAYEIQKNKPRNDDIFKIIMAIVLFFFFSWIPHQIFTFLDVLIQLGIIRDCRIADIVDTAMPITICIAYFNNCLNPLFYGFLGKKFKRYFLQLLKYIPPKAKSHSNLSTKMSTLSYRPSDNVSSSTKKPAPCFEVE

pressor effect of Ang II [3] = assay: Pressor effect of Ang II in rats after losartan or losartan included in cyclodextrin (gavage); assay type: in vivo; conditions: losartan 0.2 mg/Kg, tested 2, 6, 24 and 48 hours after
pressor effect of Ang II [4] = assay: Pressor effect of Ang II in rats after subcutaneous losartan or losartan incorporated in biodegradable polymer (telemetric recording of arterial pressure); assay type: in vivo; conditions: losartan 0.7 mg
Protocol: Male rats weighing (330-350 g) instrumented for telemetric recording of arterial pressure (Data Science System) were anesthetized and submitted to the implantation of […] femoral vein. […] Injections of Ang II were made after 2, 8 and 24 hours and then at intervals of 24 hours, for 15 days.

[5] = cited from earlier work; remark: listed apart in the source
[6] = cited from earlier work; remark: listed apart in the source
[7] = cited from earlier work; remark: listed apart in the source

## CCOc1nc2cccc(C(=O)O)c2n1Cc1ccc(-c2ccccc2-c2nnn[nH]2)cc1 [Candesartan]
[1]; in vivo
  bioavailability: about 40%
  half-life: 9 h

## CCCCc1ncc(/C=C(\Cc2cccs2)C(=O)O)n1Cc1ccc(C(=O)O)cc1 [Eprosartan, (E)-a-[[2-butyl-1-[(4-carboxyphenyl)metyl]-1H-imidazol-5-yl]methylene]-2-thiofenepropanoic acid]
[1]; in vivo
  eliminated through the feces: Approximately 90%
  time to peak of maximum concentration: about 2 hours
[2]
  binding / affinity for the Ang II AT1 receptor: high affinity

## CCCCC1=NC2(CCCC2)C(=O)N1Cc1ccc(-c2ccccc2-c2nnn[nH]2)cc1 [Irbersartan]
[1]; in vivo
  excreted by the bile: 80%

## CCCCc1nc(Cl)c(CO)n1Cc1ccc(-c2ccccc2-c2nn[nH]n2)cc1 [Losartan]
Pressor effect of Ang II [3]
  duration of blockade of the pressor effect of Ang II: about 8 hours
Pressor effect of Ang II [4]
  duration of blockade of the Ang II effect: about 8 hours
[1]; in vivo
  half-life: about two
[1]; oral dose
  excreted as EXP-3174: 8%
  excreted with the losartan: 5%
[5]; in alcohol
  solubility: soluble
[5]; in common organic solvents, such as acetonitrile and methyl-ethyl-cetone
  solubility: slightly soluble
[5]; in water
  solubility: soluble

## CCOC(=O)[C@H](C)C[C@@H](C)C(=O)N1c2ccccc2C[C@H]1C(=O)O [Pentopril]
[6]
  stability in the human plasma: highly stable

## CCCCc1nc(Cl)c(CC(=O)[O-])n1Cc1ccccc1Cl.[Na+] [S-8307]
[2]
  binding / affinity for the Ang II AT1 receptor: weak binding

## CCCCc1nc(Cl)c(CC(=O)[O-])n1Cc1ccccc1[N+](=O)[O-].[Na+] [S-8308]
[2]
  binding / affinity for the Ang II AT1 receptor: weak binding

## CCCc1nc2c(C)cc(-c3nc4ccccc4n3C)cc2n1Cc1ccc(-c2ccccc2C(=O)O)cc1 [Telmisartan]
[1]; in vivo
  bioavailability: 45%
  excreted by the bile: 97%

## CCCCC(=O)N(Cc1ccc(-c2ccccc2-c2nnn[nH]2)cc1)[C@H](C(=O)O)C(C)C [Valsartan, 1-oxopentyl-N′[[2′-(1H-tetrazole-5-yl)[1,1′-biphenyl]-4-yl]methyl]-L-vaniline]
[1]; in vivo
  half-life: 9 h
  time to peak of maximum concentration: about 2 hours

## CC[C@H](C)[C@H](NC(=O)[C@H](CCC(N)=O)NC(=O)[C@@H]1CCCN1C(=O)[C@H](CCCNC(=N)N)NC(=O)[C@@H]1CCCN1C(=O)[C@H](Cc1c[nH]c2ccccc12)NC(=O)[C@@H]1CCC(=O)N1)C(=O)N1CCC[C@H]1C(=O)N1CCC[C@H]1C(=O)O [teprotide]
[7]; intravenous route
  anti-hypertensive action: has an anti-hypertensive action
[7]; oral route
  anti-hypertensive action: inactive

Source: US7858597B2, “Preparation of formulations of angiotensin II AT1 receptors antagonists for the treatment of arterial hypertension, other cardiovascular illnesses and its complications” (Universidade Federal De Mimas Gerais - UFMG, priority 2001, dated 2010)
